Molecules are shown by their SMILES.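 48-hour exposure; five concentrations; linearly interpolated endpoints. GI50 is the concentration that inhibits growth by half. At the TGI there is no net growth.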 Some results are limits rather than exact numbers.

Assay in all cases: growth of human tumour cells (NCI), 48 h
Test [1] concerns HCT-15 colon.
In test [2] the test system is UACC-62 melanoma.
Test [3] has as its system COLO 205 colon.
In test [4] the test system is MALME-3M melanoma.
Test [5] has as its system HCT-116 colon.
In test [6] the test system is HT29 colon.
Test [7] deals with SF-268 CNS.
In test [8] the test system is OVCAR-3 ovarian.
In test [9] the test system is MOLT-4 leukemia.
Test [10] concerns K-562 leukemia.

With `Cc1[nH]n(-c2cccc(Cl)c2)c(=O)c1/C=C1\C=Nc2ccc(Br)cc21`, the GI50 was 5.25 µM in test [1]; 4.34 µM in test [2]; 2 µM in test [3]; 3.15 µM in test [4]; 2.65 µM in test [5]; 4.5 µM in test [6]. Moreover, the GI50 in [7] was 5.49 µM; in test [8], 1.82 µM; in test [9], 3.12 µM. Further, the TGI in test [1] was more than 100 µM; in test [2], 18.2 µM; in [3], 4.29 µM; in [4], 13.1 µM; in test [5], 7.03 µM; in [6] it was more than 100 µM. In addition, the TGI in [7] stood at 26.4 µM; in test [8], 3.54 µM; in [9], 10.9 µM.

Consider `O=C(O)c1ccccc1-c1ccccc1C(=O)Nc1ccc2c(c1)Cc1cc(F)ccc1-2`, for which the TGI in test [1] was 38 µM; in test [2], 36.8 µM; in test [3] it was 32.7 µM; in [4], 88.7 µM; in [5], 33 µM; in test [6], more than 100 µM. The TGI was more than 100 µM in test [7], 45.6 µM in test [8] and more than 100 µM in test [9].

For `CCOC(=O)[C@H](CCCNC(=O)OC(C)(C)C)NCc1ccc(OC)c(OC)c1`, the TGI in [2], in test [3], in test [10], in test [4], in test [5] and in test [6] was more than 100 µM throughout. In addition, the TGI in [7], in test [8] and in [9] was more than 100 µM throughout.

Regarding `CC(=O)c1c(CBr)n([O-])c2ccccc2[n+]1=O`, the GI50 is 13.6 µM in test [1]; 14.9 µM in [2]; 1.81 µM in [3]; 3.45 µM in test [10]; 4.48 µM in [4]; 1.36 µM in test [5]. The GI50 was 8.34 µM in test [6], 3.14 µM in [8] and 4 µM in test [9]. Further, the TGI was 27.7 µM in test [1]; 28.6 µM in test [2]; 3.63 µM in test [3]; 12.5 µM in test [10]; 17.4 µM in test [4]; 2.89 µM in test [5]. Moreover, the results for the TGI in [6], in test [8] and in test [9] were 25.9 µM, 7.67 µM and 15.7 µM, respectively.

As for `O=S(O)CCCCSSCc1ccccc1CSSCCCCS(=O)O`, the TGI is more than 100 µM in test [1]; 25.3 µM in [2]; 31.2 µM in [3]; 82.3 µM in test [10]; 28.5 µM in test [4]; 20.6 µM in test [6]. The TGI turned out to be 39.3 µM in test [7], 25.2 µM in test [8] and 14.5 µM in test [9].

For `Cc1cc(C)n(CCNCCn2nc(C)cc2C)n1`, the TGI in test [1] was more than 1 µM; in test [2], more than 100 µM; in test [3], more than 100 µM; in test [10] it was more than 100 µM; in test [5], more than 100 µM; in test [7], more than 100 µM. Further, the TGI in [8] and in [9] was more than 100 µM throughout.

With `O=C(CCC/C(CC(=O)c1ccc(Br)cc1)=N\O)Nc1ccccc1`, the TGI in test [2], in [3], in [4], in [5], in test [6] and in test [7] was more than 100 µM each time. Moreover, the TGI in test [8] and in [9] was more than 100 µM throughout.

For the compound `CCOC(=O)CCc1c(C)c2c(OC(C)=O)cc(OC(C)=O)cc2oc1=O`, the TGI was more than 100 µM in [3]; 55.5 µM in [4]; more than 100 µM in test [5]; more than 100 µM in test [6]; 77.4 µM in test [7]; 83.3 µM in test [8].

`Nc1nc(Nc2ccccc2)c2ncn(Cc3cc4c(cc3Br)OCO4)c2n1`: the GI50 in [1] is 0.0416 µM; in test [2] it was 0.0537 µM; in test [3], 0.0716 µM; in [10], 0.0415 µM; in test [5] it was 0.046 µM; in [6], 0.0484 µM. The GI50 in test [7] was 0.128 µM; in test [8] it was 0.0326 µM; in test [9], 0.196 µM. In addition, the TGI in [1] is 5.48 µM; in test [2] it was 28.4 µM; in test [3], 0.375 µM; in [10], more than 39.9 µM; in test [5], 24.9 µM; in test [6], 0.706 µM. In addition, the TGI in [7] was 45.3 µM; in test [8] it was 0.237 µM; in test [9], more than 100 µM.

Regarding `Cc1cn2c(/C=C3/C(=O)Nc4ccccc43)c(-c3ccc(Cl)cc3)nc2s1`, the GI50 in test [1] is 6.93 µM; in test [2], 5.49 µM; in test [3], 10.4 µM; in [10] it was 46.5 µM; in test [6], 9.23 µM; in test [7], 7.41 µM. The GI50 is 9.82 µM in test [8] and 16.9 µM in test [9]. The TGI in [1] is 13.4 µM; in test [2] it was 11.5 µM; in test [3], 22.2 µM; in [10], more than 50 µM; in test [6], 16.2 µM; in test [7] it was 24.4 µM. The TGI in test [8] was found to be 17.9 µM; in test [9], 47.4 µM.

Consider `COc1ccc(/C=c2/sc3n(c2=O)C(c2ccc(OC)c(OC)c2)C2=C(N=3)c3cc(F)ccc3OC2)cc1` (stereo unspecified), for which the GI50 is 22.2 µM in test [1]; 17.9 µM in test [2]; 30.1 µM in test [3]; 19.9 µM in [10]; 17.4 µM in [5]; 16.2 µM in test [6]. Further, the GI50 is 15.5 µM in test [7], 2.54 µM in test [8] and more than 22.7 µM in test [9]. In addition, the TGI is more than 83 µM in test [1]; more than 63.3 µM in test [2]; more than 57.1 µM in [3]; more than 100 µM in test [10]; more than 100 µM in test [5]; more than 100 µM in [6]. Further, the TGI in test [7] is more than 100 µM; in [8] it was 14.1 µM; in test [9], more than 100 µM.

In the case of `O=C(O)c1c(-c2nccc3ccccc23)[nH]c(-c2ccccc2)c1S(=O)(=O)O`, the TGI in test [1], in test [2], in [3], in test [4], in [5] and in test [6] was more than 100 µM in each case. For the same compound, the TGI in [7], in test [8] and in test [9] was more than 100 µM throughout.

(Values after PubChem BioAssay (NCI).)
